The subject of series [1] is U2OS (human, osteosarcoma). As to the kind of experiment: MTT cytotoxicity U2OS. Format: cell-based. Particulars: 72 h, n = 3. On the procedure:
(§1) Cells were washed with PBS and 0.5 mL trypsin was added. Afterwards, cells were incubated for 5 min before adding 10 mL medium containing 10% FBS. Per well, 120 µL cell suspension (5 × 10^4 cells/mL) was seeded in transparent 96-well cell bind plates and incubated for 2 h (37 °C, 5% CO2). A dilution series (1:3) of test compounds was prepared in respective media containing 10% FBS and added (60 µL) to the prepared cell plate. Cells were incubated for a further 72 h (37 °C, 5% CO2). Next, 20 µL MTT (5 mg/mL in PBS) was added to each well and incubated for 2 h (37 °C, 5% CO2). The wells were emptied and 100 µL isopropanol/10 N HCl (1000:4) per well was added.
(§2) The plates were analyzed by measuring the absorbance at 570 nm (plate reader Infinite® 200 Pro, Tecan). After normalization of data to the respective solvent controls, the calculated percentage of growth inhibition was plotted using GraphPad Prism software (version 10.0.2).

For a further series, the system named is Huh-7.5 (human, liver). As to the kind of experiment: MTT cytotoxicity Huh-7.5. Format: cell-based. Particulars: Huh7.5, 72 h, n = 3. On the procedure:
(§3) All cell types were cultivated at 37 °C with 5% CO2. HepG2, HEK293, HCT116, CHO-K1, HeLa-CCL-2 and Huh-7.5 were purchased from ATCC. The respective cell media (Gibco) were supplemented with 10% FBS (Gibco) before usage. Cells were used between passages #5 and #30. To obtain biological repeats, cells were split separately for at least two passages.
as §1, §2

A short description of series [2]: Mouse plasma protein binding. The class given is in vitro ADME. Particulars: read-out: Mouse PPB (converted).
Series [3] is described as follows: Metabolic stability in mouse liver microsomes. The class given is in vitro ADME. Particulars: pooled mouse liver microsomes, 0.5 mg/mL microsomes, NADPH. On the procedure:
The metabolic stability of testosterone, verapamil and ketoconazole was determined in parallel to confirm the enzymatic activity of mouse liver microsomes. For combination experiments, cobicistat was added to the incubation mixture together with test compounds. […] Concentration of the remaining test compound at the different time points was analyzed by HPLC-MS/MS (Vanquish Flex coupled to a TSQ Altis Plus, Thermo Fisher, Dreieich, Germany) and used to determine half-life (t1/2).
On the technique in general: Liver microsomes are vesicles of endoplasmic reticulum, rich in cytochrome P450 enzymes.

The nature of series [4]: Metabolic stability in mouse hepatocytes. The class given is in vitro ADME. How it is done:
For the evaluation of combined phase I and phase II metabolic stability, the compound (1 μM) was incubated with 0.25 × 10^6 cells/mL of pooled mouse hepatocytes (Xenotech, Kansas City, USA). Cells were thawed in Leibovitz’s L-15 medium without phenol red (ThermoFisher Scientific, Waltham, USA). Briefly, cells were transferred into 50 mL of medium, followed by centrifugation at 55 g for 6 min. Supernatant was discarded, and the cell count was determined after gently resuspending the cell pellet in 1mL of medium. Hepatocytes were diluted to 0.5 × 10^6 cells/mL and incubated at 37 °C, 700 rpm for 10 min, to achieve the desired final cell count after addition of an equal volume of test compounds in medium, leading to a final test concentration of 1 µM at 1% DMSO. […] For the determination of metabolism in the presence of cobicistat, this drug was added together with test compounds in the desired concentration range. The metabolic stability of testosterone, verapamil, ketoconazole and 7-hydroxycoumarine were determined in parallel to confirm the enzymatic activity of mouse hepatocytes. […] Concentration of the remaining test compound at the different time points was analyzed by HPLC-MS/MS (Vanquish Flex coupled to a TSQ Altis Plus, Thermo Fisher, Dreieich, Germany) and used to determine half-life (t1/2). Intrinsic clearance was calculated as follows:2 CLintµL/min×10^6cells=Incubation volumeµL×ln(2)/Cells in incubation mixture[10^6]×t1/2
For metabolite identification studies, test compounds were incubated at 10 µM final concentration and samples were analyzed using HPLC-HRMS (Ultimate 3000 coupled to a Q Exactive Focus, Thermo Fisher, Dreieich, Germany). […] Blank samples using DMSO were run in parallel for background subtraction. Sample processing for metabolite identification was performed using Compound Discoverer 3.2 (Thermo Fisher, Dreieich, Germany). Metabolites were identified based on mass shifts and feasibility of the metabolic reaction, also in view of MS peak intensities over time.

The test system of the next series is HeLa (human, cervix). Description: MTT cytotoxicity HeLa. Particulars: 72 h, n = 3. The class given is cell-based. On the procedure:
as §3, §1, §2

For another series, the system named is HEK293 (human, kidney). Description: MTT cytotoxicity HEK293. The class given is cell-based. Particulars: HEK293, MTT, 72 h, n = 3, read-out: IC50 HEK293 (human, kidney). On the procedure:
as §3, §1, §2

In series [5] the target is T1, human DNA topoisomerase IIα (TOP2A) (Homo sapiens, UniProt P11388).
T1 construct: purchased Inspiralis
T1 sequence (P11388 whole entry): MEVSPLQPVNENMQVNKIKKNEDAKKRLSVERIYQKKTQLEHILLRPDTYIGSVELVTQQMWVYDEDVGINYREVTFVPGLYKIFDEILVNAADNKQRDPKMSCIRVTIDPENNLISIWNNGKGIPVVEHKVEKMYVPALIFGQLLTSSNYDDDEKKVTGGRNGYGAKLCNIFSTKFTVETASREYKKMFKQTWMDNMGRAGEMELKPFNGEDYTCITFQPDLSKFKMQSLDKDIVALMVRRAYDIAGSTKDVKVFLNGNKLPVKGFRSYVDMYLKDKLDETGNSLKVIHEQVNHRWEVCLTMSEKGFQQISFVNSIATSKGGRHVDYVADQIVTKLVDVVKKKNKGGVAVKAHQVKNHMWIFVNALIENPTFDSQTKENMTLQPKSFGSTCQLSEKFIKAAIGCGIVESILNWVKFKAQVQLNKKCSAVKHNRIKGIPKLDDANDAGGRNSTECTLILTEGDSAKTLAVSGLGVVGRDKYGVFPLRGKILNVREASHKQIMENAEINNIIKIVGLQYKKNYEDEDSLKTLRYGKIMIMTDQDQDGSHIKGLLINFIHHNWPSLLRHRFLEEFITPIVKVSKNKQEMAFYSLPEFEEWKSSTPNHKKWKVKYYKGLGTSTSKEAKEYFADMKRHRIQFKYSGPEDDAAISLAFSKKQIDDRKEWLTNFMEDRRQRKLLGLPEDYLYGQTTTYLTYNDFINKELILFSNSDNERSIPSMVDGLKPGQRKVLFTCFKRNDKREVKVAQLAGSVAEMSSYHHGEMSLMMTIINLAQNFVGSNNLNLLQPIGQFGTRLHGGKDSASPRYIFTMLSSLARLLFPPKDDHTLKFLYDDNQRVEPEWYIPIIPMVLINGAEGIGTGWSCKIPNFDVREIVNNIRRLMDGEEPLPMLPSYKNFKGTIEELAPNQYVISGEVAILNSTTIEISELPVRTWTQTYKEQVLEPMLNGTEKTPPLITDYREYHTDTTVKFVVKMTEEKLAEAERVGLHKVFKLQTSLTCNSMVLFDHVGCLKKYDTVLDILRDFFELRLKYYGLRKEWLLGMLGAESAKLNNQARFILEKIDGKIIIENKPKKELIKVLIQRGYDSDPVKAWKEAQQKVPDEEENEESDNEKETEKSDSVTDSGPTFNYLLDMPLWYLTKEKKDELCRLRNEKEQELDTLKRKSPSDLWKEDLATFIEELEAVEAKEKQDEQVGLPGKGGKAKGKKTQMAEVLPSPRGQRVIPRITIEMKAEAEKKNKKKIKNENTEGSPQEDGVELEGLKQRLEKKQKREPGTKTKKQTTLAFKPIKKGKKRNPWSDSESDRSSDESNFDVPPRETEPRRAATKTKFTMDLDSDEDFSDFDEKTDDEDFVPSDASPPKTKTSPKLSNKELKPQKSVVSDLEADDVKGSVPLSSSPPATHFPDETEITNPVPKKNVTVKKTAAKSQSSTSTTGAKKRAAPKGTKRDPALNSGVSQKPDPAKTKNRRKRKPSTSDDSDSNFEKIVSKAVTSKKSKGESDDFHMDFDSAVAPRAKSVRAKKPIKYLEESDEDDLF
As to the kind of experiment: human topoisomerase II alpha decatenation assay. The class given is biochemical. Particulars: n = 3, read-out: IC50 against TOP2A.
Description: Inhibition of topoisomerase activity was examined using the human topoisomerase II alpha decatenation assay kit (Inspiralis) as indicated by the manufacturer. Briefly, a compound dilution series was prepared in DMSO. Water, dilution buffer, assay buffer, plasmid and enzyme were mixed with the compound solution and incubated at 37 °C for 30 min. A positive control (100% activity) was prepared without the compound, and a negative control (0% activity) was prepared without the compound and the enzyme. The reaction was stopped by adding gSTEB-buffer and chloroform/isoamylalcohol (24:1 v/v). The samples were vortexed and centrifuged before running gel electrophoresis. The gel was stained with ethidium bromide and imaged using a Fusion Fx gel imager (Vilber Lourmat). Subsequent analysis was done using ImageJ and GraphPad Prism (Version 10.0.2).

The next series relates to HCT116 (human, colon). As to the kind of experiment: MTT cytotoxicity HCT116. The class given is cell-based. The note with it: HCT-116, 72 h, n = 3. On the procedure:
as §3, §1, §2

The next series in a line: physchem. Particulars: zebrafish embryo incubation medium, aqueous buffer, kinetic from dmso stock.
The nature of the next series: Mouse plasma stability. The class given is in vitro ADME. The note with it: read-out: Mouse plasma t1/2.
The next series relates to U-2 OS cells. Description: Mitochondrial superoxide formation (MitoSOX Red). The class given is cell-based, human. Particulars: n = 6. How it is done: CYS was tested for its potential to induce oxidative stress in U-2 OS cells. Therefore, 120 µL of a cell suspension in McCoy’s (+10% FBS) containing 5 × 10^4 cells/mL were seeded into black 96-well imaging plate (BD Falcon). The plates were incubated for two days (37 °C, 5% CO2) until the cells reached approximately 70% confluence. Subsequently, the cells were washed with HBSS buffer, prior to adding CYS (20 µM) and the ROS inducer menadione (50 µM) as positive control, along with the staining solution (HBSS, calcium, magnesium, 5 µM MitoSOX red and 10 µg/mL Hoechst (Thermo)). To check for ROS protective properties, menadione (50 µM) was added directly to the staining solution. […] Afterwards, the cells were washed twice with HBSS. The cells were imaged using an automated fluorescence microscope (Celldiscoverer 7, Zeiss) (excitation: […]) to analyze the fluorescence intensity of the superoxide tracker MitoSOX red. The experiment was carried out with six replicates per condition. Quantification was done by high-content image analysis using the ZEN software (version 3.4, blue edition, Zeiss). Data presentation was done using GraphPad Prism (version 10.0.3) with ordinary one-way ANOVA including multiple comparisons to the control group for statistical analysis of the sample without ROS induction via menadione in the staining solution. Multiple unpaired t test was used to compare samples for ROS protective properties, which were incubated with menadione in the staining solution.

SMILES strings stand for the structures. Values after ≈ are worked out from the molar mass of the structure shown.

Take `CO[C@H](C(N)=O)[C@H](NC(=O)c1ccc(NC(=O)c2ccc(C#N)cc2)cc1)C(=O)Nc1ccc(C(=O)Nc2ccc(C(=O)Nc3ccc(C(=O)O)cc3)c(O)c2OC(C)C)cc1` [CN-861-2]: the half-maximal inhibitory concentration (IC50) was more than 20 µM in series [1]; more than 20 µM with Huh-7.5 (human, liver); more than 37 µM with HeLa (human, cervix); more than 20 µM with HEK293 (human, kidney); 6.26 ± 4.69 µM in series [5]; more than 20 µM in the series on HCT116 (human, colon). Also, the fraction unbound in series [2] was 0.0037. Also, the microsomal CLint at 1 μM in [3] (read-out: MLM Clint) was less than 11.6 µL/min/mg. The half-life at 1 µM in series [3] (read-out: MLM t1/2) is more than 2 h; in series [4] (mouse, pooled mouse hepatocytes, 1 μM, 0.25 × 10^6 cells/mL, read-out: Mouse Hepatocytes t1/2), more than 3 h. Besides, in [4], the “stable in murine hepatocytes for” value was more than 3 h. Further, the intrinsic clearance (hepatocyte CLint) at 1 µM in series [4] (mouse, pooled mouse hepatocytes, 1 μM, 0.25 × 10^6 cells/mL) is less than 5.1 µL/min/1e6 cells. The solubility in “physchem” came out at 20 µM (≈ 16.8 µg/mL). In “Mouse plasma stability”, the half-life is more than 4 h. Further, the “basal superoxide radical levels vs DMSO control” value in the series on U-2 OS cells (20 µM, MitoSOX Red, no menadione) is recorded as “decrease of superoxide radical levels”. In the series on U-2 OS cells (CYS 20 µM + menadione 50 µM), the “menadione-induced superoxide formation on co-treatment” value is recorded as “slight yet statistically significant increase in superoxide production”.

As usually defined, the IC50 is the point on the concentration scale where inhibition reaches its midpoint. As a reminder, the hepatocyte CLint is the rate of metabolic loss divided by the concentration. The term solubility denotes the dissolved amount per volume that the medium holds. Read a high solubility as much dissolved substance.

The record behind these values is PMC13267113 (npj Drug Discovery, 2025).
